From article PMC11858884 (Plants, 2025)
Like-named read-outs stand apart in the source and are kept apart here.

Experiments:
mushroom tyrosinase [1] = assay: Tyrosinase inhibition assay (spectrophotometric, L-tyrosine, dopachrome at 495 nm); format: biochemical, Agaricus bisporus; conditions: mushroom tyrosinase 100 U/mL, 1 mM L-tyrosine, 37 °C; mean of three experiments; read-out: Tyrosinase inhibitory activity IC50±SD
Experimental: The tyrosinase inhibitory activity was evaluated using a method previously described with slight modification (for details, see the Supporting Materials). […]
Tyrosinase inhibition assay
30 microliters of the sample (final concentrations of 50, 100, 200 µM) and 50 µL of 100 U/mL mushroom tyrosinase were treated in 96-well plates and incubated at 37 ◦C for 15 min. Subsequently, 50 µL of 1 mM L-tyrosine was added and then reacted at 37 ◦C for 15 min. The amount of dopachrome formed was measured at 495 nm using Thermo Scientific™ Multiskan SkyHig h Microplate Spectrophotometer. Each sample has been tested in triplicate and the tyrosinase inhibitory activity was calculated using the following equation:
Tyrosinase inhibitory activity (I%) = [1 − (S − S0)/ (C − C0)] × 100 where S is the absorbance of the sample, tyrosinase, and L-tyrosine; S0 is the absorbance of the sample and L-tyrosine; C is the absorbance of tyrosinase and L-tyrosine, and C0 is the absorbance of L-tyrosine (negative […]
control). […] IC50 values were calculated through a linear regression and expressed as means ± SD (standard deviation). They were considered statistically significant with values of p < 0.05. […]

[2] = target: T1, AchE (from Electrophorus electricus) (Electrophorus electricus, UniProt O42275); assay: biochemical
T1 construct: purchased Sigma-Aldrich (Milan, Italy)
T1 sequence (O42275 24-633): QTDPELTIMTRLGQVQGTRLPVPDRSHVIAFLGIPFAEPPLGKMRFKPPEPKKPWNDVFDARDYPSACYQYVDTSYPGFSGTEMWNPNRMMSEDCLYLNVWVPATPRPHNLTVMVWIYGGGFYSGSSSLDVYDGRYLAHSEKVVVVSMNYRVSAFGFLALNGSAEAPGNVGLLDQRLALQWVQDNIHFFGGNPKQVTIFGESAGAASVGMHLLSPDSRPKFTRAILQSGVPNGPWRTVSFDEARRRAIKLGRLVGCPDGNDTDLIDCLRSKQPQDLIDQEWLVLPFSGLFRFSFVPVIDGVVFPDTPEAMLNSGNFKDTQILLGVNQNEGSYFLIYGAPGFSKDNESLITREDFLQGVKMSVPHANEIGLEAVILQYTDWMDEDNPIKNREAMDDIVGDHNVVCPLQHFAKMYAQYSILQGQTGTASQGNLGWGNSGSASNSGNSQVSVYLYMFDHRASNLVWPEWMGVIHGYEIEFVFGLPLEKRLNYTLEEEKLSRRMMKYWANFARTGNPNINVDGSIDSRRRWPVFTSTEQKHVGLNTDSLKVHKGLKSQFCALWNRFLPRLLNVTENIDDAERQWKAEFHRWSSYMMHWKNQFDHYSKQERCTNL
Experimental: The acetylcholinesterase (AchE) inhibitory activity was evaluated using a method described by Balkrishna et al. with slight modification (for details, see the Supporting Materials). […]
[…] IC50 values were calculated through a linear regression and expressed as means ± SD (standard deviation). They were considered statistically significant with values of p < 0.05.
Acetylcholinesterase inhibition assay
The assay mechanism forecasts that the AchE enzyme hydrolyses the substrate acetylthiocholine, resulting in the product “thiocholine” which reacts with Ellman’s reagent (5,5’-dithio-bis-(2-nitrobenzoic acid), DTNB) to produce 2-nitrobenzoate-5-mercaptothiocholine and 5-thio-2-nitrobenzoate (TNB); the latter can be detected at 415 nm. 150 µL of phosphate buffer (0.1 M), 20 microliters of the sample (final concentrations of 100, 200, […]
300 µM) and 20 µL of 0.2 U/mL AchE (from Electrophorus electricus) were treated in 96-well plates and […]

mushroom tyrosinase [3] = assay: Tyrosinase inhibition kinetics study (Lineweaver-Burk plot); format: biochemical, Agaricus bisporus
Experimental: Kinetic analysis of the tyrosinase enzyme for compound 13 was carried out using the Lineweaver–Burk double reciprocal plot. […] At 37 °C, the enzyme inhibition reaction was recorded by measuring the absorbance of the microplate reader at 495 nm for 0, 3, 6, 9, 12, and 15 min.

[4] = 0.2 U/mL AchE, acetylthiocholine, 37 °C, mean of three experiments, read-out: AchE inhibitory activity IC50±SD

Molecule: COc1cc2ccc(=O)oc2cc1O[C@@H]1O[C@H](CO)[C@@H](O)[C@H](O)[C@H]1O [Compound 1, Scopolin]
- IC50 (mushroom tyrosinase [1]): 46.8 ± 6.34 µM
- IC50 [2, 4]: 231 µM

Molecule: O=C(O)C[C@@H]1CCC(=O)[C@@H]1C/C=C\CCO[C@@H]1O[C@H](CO)[C@@H](O)[C@H](O)[C@H]1O [Compound 2, Tuberonic acid glucoside]
- IC50 (mushroom tyrosinase [1]): 192 ± 7.92 µM
- IC50 [2, 4]: 343 ± 10 µM

Molecule: OC[C@H]1O[C@@H](OCCc2ccccc2)[C@H](O)[C@@H](O)[C@@H]1O [Compound 3, Phenylethyl ꞵ-D-glucopyranoside]
- IC50 (mushroom tyrosinase [1]): 196 ± 7.01 µM
- IC50 [2, 4]: 281 ± 10.1 µM

Molecule: CCC(C)O[C@@H]1O[C@H](CO)[C@@H](O)[C@H](O)[C@H]1O (stereo partly drawn) [Compound 4, 1-Methylpropyl ꞵ-D-glucopyranoside]
- IC50 (mushroom tyrosinase [1]): 412 ± 8.12 µM
- IC50 [2, 4]: 352 ± 9.03 µM

Molecule: C[C@@H]1O[C@@H](OC[C@H]2O[C@@H](Oc3cc(O)c4c(=O)cc(-c5ccc(O)cc5)oc4c3)[C@H](O)[C@@H](O)[C@@H]2O)[C@H](O)[C@H](O)[C@H]1O [Compound 6, Apigenin 7-O-rutinoside]
- IC50 (mushroom tyrosinase [1]): 32.1 µM
- IC50 [2, 4]: 182 µM

Molecule: COc1ccc(-c2oc3cc(O[C@@H]4O[C@H](CO)[C@@H](O)[C@H](O)[C@H]4O)c(OC)c(O)c3c(=O)c2O)cc1 [Compound 7, Camaraside]
- IC50 (mushroom tyrosinase [1]): 87.4 ± 5.67 µM
- IC50 [2, 4]: 232 ± 9.98 µM

Molecule: C=C1C(=O)O[C@@H]2/C=C(/C)[C@@H](O)C[C@@H](O)C(=C)C[C@H](OC(=O)/C(C)=C/C)[C@@H]12 [Compound 8, 8-Tigloylhydroxyisonobilin]
- IC50 (mushroom tyrosinase [1]): 184 ± 7.12 µM
- IC50 [2, 4]: 225 µM

Molecule: O=c1cc(-c2ccc(O)cc2)oc2cc(O)cc(O)c12 [Compound 9, Apigenin]
- IC50 [2]: 362 ± 10.1 µM

Molecule: C=C1C(=O)O[C@@H]2/C=C(/C)[C@@H](O)C[C@@H](O)C(=C)C[C@H](OC(=O)/C(C)=C\C)[C@@H]12 [Compound 10, Hydroxyisonobilin]
- IC50 (mushroom tyrosinase [1]): 188 ± 6.63 µM
- IC50 [2, 4]: 268 ± 12.1 µM

Molecule: C=C1C(=O)O[C@@H]2/C=C(/C)[C@H](O)C[C@@H](O)C(=C)C[C@H](OC(=O)/C(C)=C\C)[C@@H]12 [Compound 11, 3-Epi-hydroxyisonobilin]
- IC50 (mushroom tyrosinase [1]): 286 ± 8.28 µM
- IC50 [2, 4]: 263 ± 11.2 µM

Molecule: C=C1C[C@H](OC(=O)/C(C)=C\C)[C@H]2C(=C)C(=O)O[C@@H]2/C=C(/C)[C@@H](O)CC1=O [Compound 12, Nobilinon A]
- IC50 (mushroom tyrosinase [1]): 314 ± 8.09 µM
- IC50 [2, 4]: 244 ± 9.11 µM

Molecule: C=C1CC(OC(=O)C(C)=CC)C2C(C=C(C)C(O)CC1O)OC(=O)C2C (stereo not shown) [Compound 13, 11,13-Dihydro-8-tigloylhydroxyisonobilin]
- IC50 (mushroom tyrosinase [1]): 146 µM
- IC50 [2, 4]: 245 ± 9.16 µM
- Type of tyrosinase inhibition (mushroom tyrosinase [3]; Lineweaver-Burk double reciprocal plot): uncompetitive
- Vmax in the presence of the inhibitor (mushroom tyrosinase [3]; inhibitor 53.52 µg/mL, L-tyrosine 1-0.125 mM, control Vmax 42.02 µM/min): 27.25 µM/min

Molecule: C=C1C(=O)O[C@@H]2/C=C(/C)[C@@H](O)C/C=C(\C)C[C@H](OC(=O)/C(C)=C\C)[C@@H]12 [Compound 14, Nobilin]
- IC50 (mushroom tyrosinase [1]): 297 ± 7.23 µM
- IC50 ([2]; read-out: AchE inhibitory activity IC50±SD): 304 µM

Molecule: COc1ccc(-c2cc(=O)c3c(O)c(OC)c(O)cc3o2)cc1 [Compound 15, 5,7-Dihydroxy-6-methoxy-2-(4-methoxyphenyl)-4H-1-benzopyran-4-one]
- IC50 (mushroom tyrosinase [1]): 212 ± 6.76 µM
- IC50 [2, 4]: 190 µM

Molecule: ꞵ-D-Glucopyranose, 1-[(2 Z)-2 methyl-2-butenoate] [Compound 5]
- IC50 (mushroom tyrosinase [1]): 299 ± 7.86 µM
- IC50 [2, 4]: 388 ± 11.1 µM
